Experimental data taken from patent publication US11492361B2, “Compounds useful in HIV therapy” (GlaxoSmithKline Intellectual Property Development Limited, priority 2018, dated 2022).
Structures can show the parent of a compound that is named as a salt.

Tested on: Jurkat HIV-luciferase clones
Assay: Jurkat latency reversal assay
Type: cell-based
Conditions: Homo sapiens, Jurkat, 48 h
Protocol: Jurkat HIV-luciferase clones were maintained in RPMI medium 1640 (Gibco by Life Technologies) containing 10% (vol/vol) fetal bovine serum (SAFC/Sigma-Aldrich) and 25 units/mL penicillin, 25 units/mL streptomycin (Gibco by Life Technologies), and were split 1:4 every 3 to 4 days to maintain a cell density of ˜0.3 to 1 million cells/mL. The Jurkat clones were maintained with the addition of 500 nM EFV in the medium. Three Jurkat cell clones (C16, I15, and N6), each harboring one or two integrated HIV proviruses expressing the luciferase reporter gene, were added at equal amounts for a total of 5,000 cells per well to 384-well plates containing compound titrations. Dose-response testing was performed on compounds dissolved in dimethyl sulfoxide (DMSO, Fisher Scientific, Merelbeke, Belgium) dispensed in duplicate serial 3-fold, 14-point titrations using a D300e Digital Droplet Dispenser (Hewlett-Packard) to give final assay concentrations of 10 μM to 2.1 pM in 50 μL of medium at 0.5% DMSO (vol/vol) final concentration. Cells and compound were incubated at 37° C. for 48 hours, unless otherwise indicated, followed by the addition of 20 μL of Steady-Glo® Luciferase (Promega). Luminescence resulting from the induction of the virally expressed luciferase was measured using an EnVision 2102 Multilabel Plate Reader (Perkin Elmer). Dose-response relationships were analyzed with GraphPad PRISM 6 using a four-parameter logistic regression model to calculate the concentration of compound that gives half-maximal response (EC50) and the maximal percent activation compared to the vehicle control.

SMILES | EC50 [nM]
CN[C@@H](C)C(=O)N[C@H]1CCS[C@H]2CC(C)(C)[C@@H](C(=O)N[C@H]3c4ccccc4C[C@H]3OCc3ccc(CO[C@@H]4Cc5ccccc5[C@@H]4NC(=O)[C@H]4N5C(=O)[C@@H](NC(=O)[C@H](C)NC)CCS[C@H]5CC4(C)C)cc3)N2C1=O [compound 22, (4S,4′S,7S,7′S,9aS,9a′S)-N,N′-((1S,1′S,2R,2′R)-((1,4-phenylenebis(methylene))bis(oxy))bis(2,3-dihydro-1H-indene-2,1-diyl))bis(8,8-dimethyl-4-((S)-2-(methylamino)propanamido)-5-oxooctahydropyrrolo[2,1-b][1,3]thiazepine-7-carboxamide)] | 8.8
CN[C@@H](C)C(=S)N[C@H]1CCS[C@H]2CC(C)(C)[C@@H](C(=O)N[C@H](C(=O)NCC#CC#CCNC(=O)[C@@H](NC(=O)[C@H]3N4C(=O)[C@@H](NC(=S)[C@H](C)NC)CCS[C@H]4CC3(C)C)c3ccccc3)c3ccccc3)N2C1=O [compound 32, (4S,4′S,7S,7′S,9aS,9a′S)-N,N′-((1S,1′S)-(hexa-2,4-diyne-1,6-diylbis(azanediyl))bis(2-oxo-1-phenylethane-2,1-diyl))bis(8,8-dimethyl-4-((S)-2-(methylamino)propanethioamido)-5-oxooctahydropyrrolo[2,1-b][1,3]thiazepine-7-carboxamide)] | 166
CN[C@@H](C)C(=S)N[C@H]1CCS[C@H]2CC(C)(C)[C@@H](C(=O)N[C@H]3c4ccccc4C[C@H]3OCC#CC#CCO[C@@H]3Cc4ccccc4[C@@H]3NC(=O)[C@H]3N4C(=O)[C@@H](NC(=S)[C@H](C)NC)CCS[C@H]4CC3(C)C)N2C1=O [compound 15, (4S,4′S,7S,7′S,9aS,9a′S)-N,N′-((1S,1′S,2R,2′R)-(hexa-2,4-diyne-1,6-diylbis(oxy))bis(2,3-dihydro-1H-indene-2,1-diyl))bis(8,8-dimethyl-4-((S)-2-(methylamino)propanethioamido)-5-oxooctahydropyrrolo[2,1-b][1,3]thiazepine-7-carboxamide)] | 15.3
CN[C@@H](C)C(=S)N[C@H]1CCS[C@H]2CC(C)(C)[C@@H](C(=O)N[C@H](COCc3ccc(COC[C@@H](NC(=O)[C@H]4N5C(=O)[C@@H](NC(=S)[C@H](C)NC)CCS[C@H]5CC4(C)C)c4ccccc4)cc3)c3ccccc3)N2C1=O [compound 43, (4S,4′S,7S,7′S,9aS,9a′S)-N,N′-((1S,1′S)-((1,4-phenylenebis(methylene))bis(oxy))bis(1-phenylethane-2,1-diyl))bis(8,8-dimethyl-4-((S)-2-(methylamino)propanethioamido)-5-oxooctahydropyrrolo[2,1-b][1,3]thiazepine-7-carboxamide) dihydrochloride] | 43.4
CN[C@@H](C)C(=S)N[C@H]1CCS[C@H]2CC(C)(C)[C@@H](C(=O)NC3c4ccccc4CC[C@H]3C(=O)N3CCN(C(=O)[C@@H]4CCc5ccccc5C4NC(=O)[C@H]4N5C(=O)[C@@H](NC(=S)[C@H](C)NC)CCS[C@H]5CC4(C)C)CC3)N2C1=O (stereo in doubt) [compound 8, (4S,4′S,7S,7′S,9aS,9a′S)-N,N′-((1R,1′R,2R,2′R)-(piperazine-1,4-dicarbonyl)bis(1,2,3,4-tetrahydronaphthalene-2,1-diyl))bis(8,8-dimethyl-4-((S)-2-(methylamino)propanethioamido)-5-oxooctahydropyrrolo[2,1-b][1,3]thiazepine-7-carboxamide) dihydrochloride] | 2.4
CN[C@@H](C)C(=O)N[C@H]1CCS[C@H]2CC(C)(C)[C@@H](C(=O)N[C@H]3c4ccccc4C[C@H]3OCCCCO[C@@H]3Cc4ccccc4[C@@H]3NC(=O)[C@H]3N4C(=O)[C@@H](NC(=O)[C@H](C)NC)CCS[C@H]4CC3(C)C)N2C1=O [compound 16, (4S,4′S,7S,7′S,9aS,9a′S)-N,N′-((1S,1′S,2R,2′R)-(butane-1,4-diylbis(oxy))bis(2,3-dihydro-1H-indene-2,1-diyl))bis(8,8-dimethyl-4-((S)-2-(methylamino)propanamido)-5-oxooctahydropyrrolo[2,1-b][1,3]thiazepine-7-carboxamide)] | 10.1
CN[C@@H](C)C(=S)NC1CCS[C@H]2CC(C)(C)[C@@H](C(=O)N[C@H]3c4ccccc4CC[C@H]3C(=O)NCc3ccc(CNC(=O)[C@@H]4CCc5ccccc5C4NC(=O)[C@H]4N5C(=O)[C@@H](NC(=S)[C@H](C)NC)CCS[C@H]5CC4(C)C)cc3)N2C1=O (stereo in doubt) [compound 10, (4S,4′S,7S,7′S,9aS,9a′S)-N,N′-((1R,1′R,2R,2′R)-(((1,4-phenylenebis(methylene))bis(azanediyl))bis(carbonyl))bis(1,2,3,4-tetrahydronaphthalene-2,1-diyl))bis(8,8-dimethyl-4-((S)-2-(methylamino)propanethioamido)-5-oxooctahydropyrrolo[2,1-b][1,3]thiazepine-7-carboxamide)] | 43.4
CN[C@@H](C)C(=O)N[C@H]1CCS[C@H]2CC(C)(C)[C@@H](C(=O)N[C@H](COCC#CC#CCOC[C@@H](NC(=O)[C@H]3N4C(=O)[C@@H](NC(=S)[C@H](C)NC)CCS[C@H]4CC3(C)C)c3ccccc3)c3ccccc3)N2C1=O [compound 34, (4S,7S,9aS)-N-((S)-2-((6-((S)-2-((4S,7S,9aS)-8,8-dimethyl-4-((S)-2-(methylamino)propanamido)-5-oxooctahydropyrrolo[2,1-b][1,3]thiazepine-7-carboxamido)-2-phenylethoxy)hexa-2,4-diyn-1-yl)oxy)-1-phenylethyl)-8,8-dimethyl-4-((S)-2-(methylamino)propanethioamido)-5-oxooctahydropyrrolo[2,1-b][1,3]thiazepine-7-carboxamide] | 36.3
CN[C@@H](C)C(=O)N[C@H]1CCS[C@H]2CC(C)(C)[C@@H](C(=O)N[C@H](COCCCCCCCCCCOC[C@@H](NC(=O)[C@H]3N4C(=O)[C@@H](NC(=O)[C@H](C)NC)CCS[C@H]4CC3(C)C)c3ccccc3)c3ccccc3)N2C1=O [compound 60, (4S,4′S,7S,7′S,9aS,9a′S)-N,N′-((1S,1′S)-(decane-1,10-diylbis(oxy))bis(1-phenylethane-2,1-diyl))bis(8,8-dimethyl-4-((S)-2-(methylamino)propanamido)-5-oxooctahydropyrrolo[2,1-b][1,3]thiazepine-7-carboxamide) dihydrochloride] | 3.5
CN[C@@H](C)C(=S)N[C@H]1CCS[C@H]2CC(C)(C)[C@@H](C(=O)N[C@H]3c4ccccc4C[C@H]3OCCCCO[C@@H]3Cc4ccccc4[C@@H]3NC(=O)[C@H]3N4C(=O)[C@@H](NC(=S)[C@H](C)NC)CCS[C@H]4CC3(C)C)N2C1=O [compound 17, (4S,4′S,7S,7′S,9aS,9a′S)-N,N′-((1S,1′S,2R,2′R)-(butane-1,4-diylbis(oxy))bis(2,3-dihydro-1H-indene-2,1-diyl))bis(8,8-dimethyl-4-((S)-2-(methylamino)propanethioamido)-5-oxooctahydropyrrolo[2,1-b][1,3]thiazepine-7-carboxamide) dihydrochloride] | 20.7
CN[C@@H](C)C(=O)N[C@H]1CCS[C@H]2CC(C)(C)[C@@H](C(=O)N[C@H]3c4ccccc4C[C@H]3C(=O)NCc3ccc(CNC(=O)[C@@H]4Cc5ccccc5[C@@H]4NC(=O)[C@H]4N5C(=O)[C@@H](NC(=O)[C@H](C)NC)CCS[C@H]5CC4(C)C)cc3)N2C1=O [compound 45, (4S,7S,9aS)-N-[(1R,2R)-2-({[4-({[(1R,2R)-1-[(4S,7S,9aS)-8,8-dimethyl-4-[(2S)-2-(methylamino)propanamido]-5-oxo-octahydropyrrolo[2,1-b][1,3]thiazepine-7-amido]-2,3-dihydro-1H-inden-2-yl]formamido}methyl)phenyl]methyl}carbamoyl)-2,3-dihydro-1H-inden-1-yl]-8,8-dimethyl-4-[(2S)-2-(methylamino)propanamido]-5-oxo-octahydropyrrolo[2,1-b][1,3]thiazepine-7-carboxamide] | 183
CN[C@@H](C)C(=O)N[C@H]1CCS[C@H]2CC(C)(C)[C@@H](C(=O)N[C@H]3c4ccccc4C[C@H]3OCCOCCO[C@@H]3Cc4ccccc4[C@@H]3NC(=O)[C@H]3N4C(=O)[C@@H](NC(=O)[C@H](C)NC)CCS[C@H]4CC3(C)C)N2C1=O [compound 18, (4S,4′S,7S,7′S,9aS,9a′S)-N,N′-((1S,1′S,2R,2′R)-((oxybis(ethane-2,1-diyl))bis(oxy))bis(2,3-dihydro-1H-indene-2,1-diyl))bis(8,8-dimethyl-4-((S)-2-(methylamino)propanamido)-5-oxooctahydropyrrolo[2,1-b][1,3]thiazepine-7-carboxamide) dihydrochloride] | 22.3
CN[C@@H](C)C(=S)N[C@H]1CCS[C@H]2CC(C)(C)[C@@H](C(=O)N[C@H](COCCCCCCOC[C@@H](NC(=O)[C@H]3N4C(=O)[C@@H](NC(=S)[C@H](C)NC)CCS[C@H]4CC3(C)C)c3ccccc3)c3ccccc3)N2C1=O [compound 41, (4S,4′S,7S,7′S,9aS,9a′S)-N,N′-((1S,1′S)-(hexane-1,6-diylbis(oxy))bis(1-phenylethane-2,1-diyl))bis(8,8-dimethyl-4-((S)-2-(methylamino)propanethioamido)-5-oxooctahydropyrrolo[2,1-b][1,3]thiazepine-7-carboxamide) dihydrochloride] | 51.6
